Data taken from patent publication US11001558B2, “Asymmetric bisaminoquinolines and bisaminoquinolines with varied linkers as autophagy inhibitors for cancer and other therapy” (THE TRUSTEES OF THE UNIVERSITY OF PENNSYLVANIA, priority 2014, dated 2021).

Assays:
A375P melanoma cells = test: 72 hour alamar blue viability assay; type: cell-based; conditions: spermine or spermidine linker compared with Lys01
Procedure: […]. A375 P cells seeded in a 384 well format were treated with a 10 point dilution of concentrations (0.01 nM-10 uM) (B) Colony formation assay in soft agar. Cells from the indicated melanoma (A375, WM983B, SKMEL5) and pancreatic cancer (PANC1, CAPAN1) cell lines were plated in soft agar. Medium with compound was changed every 48 hours. Crystal violet staining was used to visualize formed colonies after 2 weeks.
A375P melanoma cells were plated in a 384 well format and treated with increasing concentrations of […] derivatives. After 72 hours the cells were analyzed by alamar blue. Complete data is in Table 1, FIG. 10. (A) IC50 according to symmetry of linker (B) IC50 by linker length.
[…]. After 72 hours incubation at 37 degrees, Alamar blue was applied and viability was determined using absorbance. Absorbance was normalized to DMSO control, and a log IC50 was estimated using Graphpad Prism software.
. After 72 hours incubation at 37 degrees, Alamar blue was applied and viability was determined using absorbance. Absorbance was normalized to DMSO control, and a log IC50 was estimated using Graphpad Prism software (FIG. 11, Table 1). LN229 cells produced similar data (data not shown). The increased cytotoxicity of longer linker and asymmetric compounds was confirmed in a 2 week colony formation assay using 5 different cell lines (FIG. 1B). Analysis of the cytotoxicity findings alone elucidated some key features of potential structure activity relationships. First, substitution of the central nitrogen substitution beyond methyl reduces activity. Second, there was no clear advantage of assymetric versus symmetric linkers (FIG. 2A) with regards to cytotoxicity alone. […]

A375 cells [1] = test: Apoptosis by annexin V detection; conditions: for apoptosis (annexin V): 1 uM compound, 24 hour timepoint
Procedure: (C) Apoptosis reflected by annexin V detection in A375 cells treated with 1 uM compound at the 24 hours. (D) Apoptosis reflected by annexin V detection in A375 cells treated with indicated compounds at 3 uM for 24 or 48 hours.

[2] = test system: A375P mCherry-eGFP-LC3 cells; test: Flow cytometry green/red ratio, inhibition of autophagic flux; type: cell-based; conditions: for inhibition of autophagic flux (green/red ratio): 1 uM compound, 24 hours
Excerpt: PLX: PLX4720; TRA: trametinib.

A375 cells [3] = test: Flow cytometry quantification of reactive oxygen species (DHR_123 fluorescence); conditions: 1 uM compound, 24 hours
autophagy = conditions: cited from earlier work
[4] = test system: A375P mCherry eGFP-LC3 cells grown into 3 dimensional spheroids; test: 3D spheroid growth and invasion in collagen; type: cell-based; conditions: 3 uM, 72 hours
Procedure: A375P mCherry eGFP-LC3 cells grown into 3 dimensional spheroids and implanted in collagen. After 72 hours of treatment with 3 uM of indicated compound, cells were counterstained with DAPI. (A) fluorescence microscopy was used to visualize autophagy inhibition (bright areas), inhibition of invasion into the collagen and (B) quantification of the DAPI fluorescence indicative of cell death. *p<0.05
The 3D spheroid model has been used extensively to mimic the tumor microenvironment (Ma et al Clin Can Research 2011). Autophagy levels are more reflective of in vivo autophagy dynamics in the 3D models compared to traditional two dimensional cell culture. In this format cancer cells are grown as spheroids and then implanted in a collagen matrix. The spheroids then begin to invade and grow within this tissue microenvironment.

melanoma cell lines = test: LC3B and actin immunoblotting (LC3II/actin quantification); conditions: 1 uM, 24 hours, 3 melanoma cell lines, compared with Lys05
Procedure: Each compound was administered at 1 uM concentrations for 24 hours.
As an initial method of determining the effects of the longer linker compounds on autophagic vesicle accumulation, a series of most cytotoxic dimeric CQ's were used to treat 3 different cell lines (1 uM, 24 hours). Cell lysates were collected and immunoblotting against LC3 and actin as performed (FIG. 4).

CN(CCCCN(C)CCCNc1ccnc2cc(Cl)ccc12)CCCNc1ccnc2cc(Cl)ccc12 [Lys 25]
potency on replacement of the Lys01 linker with longer linkers (A375P melanoma cells): significant increases in potency

Clc1ccc2c(NCCCCNCCCNc3ccnc4cc(Cl)ccc34)ccnc2c1 [Lys21]
ability to induce apoptosis compared to comparable symmetric compounds (A375 cells [1]): superior | apoptosis (annexin V) (A375 cells [1]): most apoptosis | autophagy inhibition compared to comparable symmetric compounds [2]: superior autophagy inhibition | inhibition of autophagic flux (green/red ratio) [2]: most effective at inhibiting autophagic flux | potency on replacement of the Lys01 linker with longer linkers (A375P melanoma cells): significant increases in potency

CN(CCCCNc1ccnc2cc(Cl)ccc12)CCCNc1ccnc2cc(Cl)ccc12 [Lys26]
potency on replacement of the Lys01 linker with longer linkers (A375P melanoma cells): significant increases in potency | ROS (DHR_123 fluorescence) (A375 cells [3]): highest levels of ROS

CCN(CCO)CCCC(C)Nc1ccnc2cc(Cl)ccc12 (centres unmarked) [HCQ, hydroxychloroquine]
concentrations required to inhibit autophagy (autophagy): High micromolar concentrations

CN(CCCCCCNc1ccnc2cc(Cl)ccc12)CCCCCCNc1ccnc2cc(Cl)ccc12.Cl [Lys75]
inhibition of growth and invasion of 3D spheroids [4]: most potent compound at inhibiting growth and invasion | apoptosis (annexin V) (A375 cells [1]): most apoptosis | inhibition of autophagic flux (green/red ratio) [2]: most effective at inhibiting autophagic flux | LC3II/actin (melanoma cell lines): most consistent and substantial increase | ROS (DHR_123 fluorescence) (A375 cells [3]): highest levels of ROS
